From US20110189199A1, “METHODS FOR P2RY5 MEDIATED REGULATION OF HAIR GROWTH AND MUTANTS THEREOF” (priority 2008, published 2011)

Legend:
P2RY5 receptor = P2RY5 receptor (Homo sapiens, UniProt P43657, DEL128-129/DEL256-257/Q258T); assay: Tango P2RY5 U2OS beta-lactamase reporter assay; assay type: cell-based
Method: The Tango™ P2RY5 U2OS antibiotic selected pool cells were plated at 10,000 cells/well into a 384 well clear bottom assay plate in Freestyle™ media. FBS (Fetal Bovine 20%) or a PMA concentration dilution series (in Freestyle™ media) was then added to the plate at the indicated concentrations. The plate was placed at 37° C. 5% CO2 for 24 hours for receptor stimulation followed by betalactamase substrate loading for 2 hours. (The P2RY5 cells were also tested with a 48 hour stimulation time with equivalent results.)
(§1) The antibiotic selected Tango™ P2RY5 U2OS cells were cultured to 80-90% confluence in tissueculture flasks. The growth media was then removed and replaced with Freestyle™ media either with (stimulated) or without (un-stimulated) 20% FBS. The cultures were then placed at 37° C. 5% CO2 for 48 hours for receptor stimulation followed by beta-lactamase substrate loading for 2 hours. Responsive cells were then sorted by FACS into a single pool and three 96 well plates of clones.
The Tango™ P2RY5 U2OS cells were plated at 10,000 cells/well into a 384 well clear bottom assay plate in Freestyle™ media. FBS was then added to half the wells in the assay to a concentration of 20% (stimulated) while the other half of the assay received an equal volume of Freestyle™ Media (un-stimulated). The plate was placed at 37° C. 5% CO2 for 48 hours for receptor stimulation followed by betalactamase substrate loading for 2 hours.
as §1, with “selected FACS sorted responsive cell” for “selected”, “U2OS Pool was” for “U2OS cells were”, “in two tissue culture” for “in tissueculture”, “a green cell pool from the un-stimulated cell sample, and into a blue cell” for “a single”, “of clones from the FBS stimulated sample.” for “of clones.”
The Tango™ P2RY5 U2OS sorted pool cells were plated at 10,000 cells/well into a 384 well clear bottom assay plate in FreeStyle™ media. The dFBS was immediately added to plate to final concentration of 20% by volume (stimulated). An equal volume of Free Style™ media was added to the un-stimulated wells. The plate was placed at 37° C. 5% CO2 for 48 hrs for receptor stimulation followed by beta-lactamase substrate loading for 2 hours.
The Tango™ P2RY5 U2OS sorted pool cells were plated at 10,000 cells/well into a 384 well clear bottom assay plate in FreeStyle™ media. The plate was placed at 37° C. […]

[1] = system: Tango™ P2RY5 U2OS Clone 10F cells; assay: Cell death at high PMA concentrations in the Tango P2RY5 assay; assay type: cell-based
Method: The Tango™ P2RY5 U2OS Clone 10F cells were plated at 10,000 cells/well into a 384 well clear bottom assay plate in 32 μl/well Freestyle™ medium. 4 μl/well 10× DMSO in Freestyle™ medium was then added to the wells of the assay plate to bring the final DMSO concentration in the wells to 0% (no DMSO), 0.1%, 0.5% or 1.0% DMSO. 4 μl/well PMA (10× in Freestyle™ medium) was immediately added to the plate to the indicated concentrations. The plate was placed at 37° C./5% CO2 for 18 hours for receptor stimulation followed by beta-lactamase substrate loading for 2 hours.
The Tango™ P2RY5 U2OS Clone 10F cells were plated at 10,000 cells/well into two 384 well clear bottom assay plate in 32 μl/well Freestyle™ medium. One plate was placed at 37° C./5% CO2 for 18 hours prior to PMA stimulation for 5 hours while PMA was immediately added to the other plate for an 18 hours stimulation. At the time of stimulation 4 μl/well of a 10× stock of DMSO in Freestyle™ medium was added to the wells of the assay plate to bring the final DMSO concentration in the wells to 0.1% DMSO. 4 μl/well PMA (10× in Freestyle™ medium) was then added to the plate to the indicated concentrations. The plates were placed at 37° C./5% CO2 for 5 or 18 hours for receptor stimulation followed by beta-lactamase substrate loading for 2 h.
Tango™ P2RY5 U2OS clone 10F cells were cryopreserved at 2.5×10̂6 cells/ml in Recovery™ freezing medium in liquid nitrogen for several days. The cells were thawed into Freestyle™ assay medium prior to use in the assay. The Tango™ P2RY5 U2OS Clone 10F cells were plated at 10,000 cells/well into two 384 well clear bottom assay plate in 32 μl/well Freestyle™ medium. One plate was placed at 37° C./5% CO2 for 18 hours prior to PMA stimulation for 5 hours while PMA was immediately added to the other plate for an 18 hour stimulation. At the time of stimulation 4 μl/well of a 10× stock of DMSO in Freestyle™ medium was added to the wells of the assay plate to bring the final DMSO concentration in the wells to 0.1% DMSO. […]

P2RY5 receptor, sequence (P43657 with tags, fused parts or gaps DEL128-129/DEL256-257/Q258T): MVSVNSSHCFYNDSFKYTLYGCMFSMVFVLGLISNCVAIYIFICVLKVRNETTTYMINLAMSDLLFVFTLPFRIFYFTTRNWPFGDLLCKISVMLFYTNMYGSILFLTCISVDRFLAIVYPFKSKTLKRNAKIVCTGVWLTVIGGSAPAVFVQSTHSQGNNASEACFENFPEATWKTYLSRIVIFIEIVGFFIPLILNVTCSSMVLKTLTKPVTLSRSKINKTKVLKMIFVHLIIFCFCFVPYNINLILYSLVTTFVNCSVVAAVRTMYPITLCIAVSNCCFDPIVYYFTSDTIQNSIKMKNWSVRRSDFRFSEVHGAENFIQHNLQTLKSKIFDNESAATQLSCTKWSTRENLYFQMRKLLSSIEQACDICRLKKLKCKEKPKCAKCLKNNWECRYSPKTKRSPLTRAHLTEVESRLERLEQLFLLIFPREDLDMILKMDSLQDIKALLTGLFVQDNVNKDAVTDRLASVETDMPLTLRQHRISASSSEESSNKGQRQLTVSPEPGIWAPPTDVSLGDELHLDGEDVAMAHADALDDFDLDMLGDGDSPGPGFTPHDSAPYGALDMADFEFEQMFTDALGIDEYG

CCCCCCCCCCCCCC(=O)O[C@@H]1[C@@H](C)[C@@]2(O)[C@@H](C=C(CO)C[C@]3(O)C(=O)C(C)=C[C@@H]23)[C@@H]2C(C)(C)[C@]12OC(C)=O [PMA]
assay window, 5 hour vs 18 hour stimulation time (P2RY5 receptor; Clone 10F, 5 hour stimulation, 0.1% DMSO): larger assay window than the 18 hour stimulation time | response to PMA, cryopreserved vs dividing cells (P2RY5 receptor; Clone 10F, cryopreserved cells, 5 or 18 hours stimulation): slightly less potent response | beta-lactamase response through the P2RY5 receptor (P2RY5 receptor; Green sort pool, 5 hours stimulation): slight inducible beta-lactamase response | beta-lactamase response through the P2RY5 receptor (P2RY5 receptor; sorted clones, 18 hours stimulation): concentration dependant beta-lactamase response | PMA concentrations with cell death in the wells ([1]; cryopreserved cells, 18 hours stimulation): greater than 100 nM | PMA concentrations with cell death in the wells ([1]; dividing cells, 5 hour stimulation): > 1 µM | PMA concentrations with cell death in the wells ([1]; dividing cells, 18 hour stimulation): greater than 100 nM
